Assay results as given in US8399487B2, “Pyrazole compounds and uses thereof” (Dart NeuroScience (Cayman) Ltd., priority 2006, dated 2013).
Entries after “also recorded” stand apart in the source; their conditions may differ.

Tested on: contextual memory in C57BL/6 male mice
Assay: Contextual Memory Assay: Fear Conditioning
Type: in vivo
Conditions: I.P. 0.01 mg/kg, injected 20 minutes before training, 2 training trials, tested 24 hours after training (FIG. 1)
Text: The ability of a compound to modulate cognitive behavior can be evaluated using the following assay to measure memory after contextual fear conditioning.
Contextual Memory Assay: Fear Conditioning
Contextual memory is a form of Pavlovian fear conditioning in which a naïve mouse is placed into a novel chamber (context) containing distinct visual, olfactory and tactile cues. After a couple of minutes of acclimation, the mouse receives a brief, mild electric shock to its feet. From this negative experience, the mouse will remember for months that that chamber is dangerous. When placed back into the same context at some later time after training, the mouse's natural response to danger is to “freeze,” sitting stone still for many seconds. This is similar to what happens to humans when they experience fear. The percent of time during an observation period that the mouse spends frozen represents a quantitative measure (memory score) of its memory of the context. […]
To assess contextual memory, a modified contextual fear conditioning task originally developed for evaluation of memory in CREB knock-out mice was used (Bourtchouladze, R., et. al., Cell, 1994, 79, 59-68). […] 24 hours after training, the mouse was placed into the same training chamber and contextual memory was assessed by scoring freezing behavior (‘freezing’ serves as memory score). […]

| SMILES | contextual memory (freezing to context 24 hr after training) |
| --- | --- |
| CN(C)C(=O)c1ccc(-c2cc(C(F)(F)F)n(C)n2)s1 [Compound 162, 5-(1-Methyl-5-trifluoromethyl-1H-pyrazol-3-yl)-thiophene-2-carboxylic acid dimethylamide] | significantly enhanced contextual memory; also recorded: significantly facilitated freezing to context |
| Cn1nc(-c2ccc(C(=O)N3CCCCC3)s2)cc1C(F)(F)F [Compound 177, [5-(1-Methyl-5-trifluoromethyl-1H-pyrazol-3-yl)-thiophen-2-yl]-piperidin-1-yl-methanone] | significantly enhanced contextual memory; also recorded: significantly facilitated freezing to context |
